Test results as given in ChEMBL document CHEMBL1201862, “PubChem BioAssay data set” (2004).
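Protocol summary: plate cells (96-well), add compound at 5 concentrations, incubate 48 h, interpolate endpoints linearly. The concentration for 50% growth inhibition is given as GI50.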 Calls of active or inactive are those of the source. Rule as the data show it: active = GI50 up to about 1.1 µM and inactive = higher.

What was measured:
Experiment in all cases: inhibition of tumour cell growth, NCI panel, 48 h
MDA-MB-231 = system: MDA-MB-231
Malme-3M = system: Malme-3M
SF-295 = system: SF-295
TK-10 = system: TK-10
OVCAR-8 = system: OVCAR-8
HOP-62 = system: HOP-62
IGROV-1 = system: IGROV-1
NCI-H460 = system: NCI-H460
COLO 205 = system: COLO 205
SW-620 = system: SW-620
SNB-19 = system: SNB-19
SF-268 = system: SF-268
MDA-MB-435 = system: MDA-MB-435
RPMI-8226 = system: RPMI-8226
NCI-H23 = system: NCI-H23
KM12 = system: KM12
UACC-257 = system: UACC-257
DU-145 = system: DU-145
RXF 393 = system: RXF 393

Row | SMILES | GI50 (MDA-MB-231) | GI50 (Malme-3M) | GI50 (SF-295) | GI50 (TK-10) | GI50 (OVCAR-8) | GI50 (HOP-62) | GI50 (IGROV-1) | GI50 (NCI-H460) | GI50 (COLO 205) | GI50 (SW-620) | GI50 (SNB-19) | GI50 (SF-268) | GI50 (MDA-MB-435) | GI50 (RPMI-8226) | GI50 (NCI-H23) | GI50 (KM12) | GI50 (UACC-257) | GI50 (DU-145) | GI50 (RXF 393)
1 | Cc1cccc2c(=O)c3cccc(CC(=O)O)c3oc12 | > 100 µM (inactive) | > 100 µM (inactive) | > 100 µM (inactive) | > 100 µM (inactive) | > 100 µM (inactive) | > 100 µM (inactive) | > 100 µM (inactive) | > 100 µM (inactive) | > 100 µM (inactive) | > 100 µM (inactive) | > 100 µM (inactive) | > 100 µM (inactive) | > 100 µM (inactive) | > 100 µM (inactive) | > 100 µM (inactive) | > 100 µM (inactive) | > 100 µM (inactive) | – | –
2 | O=C1CCC2(CC1CCSc1ccccc1)OCCO2 (centres undefined) | > 100 µM (inactive) | > 100 µM (inactive) | > 100 µM (inactive) | > 100 µM (inactive) | > 100 µM (inactive) | > 100 µM (inactive) | > 100 µM (inactive) | > 100 µM (inactive) | > 100 µM (inactive) | > 100 µM (inactive) | > 100 µM (inactive) | > 100 µM (inactive) | > 100 µM (inactive) | > 100 µM (inactive) | > 100 µM (inactive) | > 100 µM (inactive) | > 100 µM (inactive) | > 100 µM (inactive) | > 100 µM (inactive)
3 | Cc1ccc(NC(=O)CC/C(CC(=O)C(C)(C)C)=N\NC(=O)C[n+]2ccccc2)cc1C | – | > 100 µM (inactive) | > 100 µM (inactive) | > 100 µM (inactive) | > 100 µM (inactive) | > 100 µM (inactive) | > 100 µM (inactive) | 51.9 µM (inactive) | > 100 µM (inactive) | > 100 µM (inactive) | > 100 µM (inactive) | > 100 µM (inactive) | – | 87.7 µM (inactive) | > 100 µM (inactive) | > 100 µM (inactive) | > 100 µM (inactive) | – | 68.1 µM (inactive)
4 | CCNC(=S)N/N=C/c1cc(OC)ccc1O | > 100 µM (inactive) | > 100 µM (inactive) | 70.3 µM (inactive) | > 100 µM (inactive) | > 100 µM (inactive) | > 100 µM (inactive) | 82.4 µM (inactive) | 35.2 µM (inactive) | > 100 µM (inactive) | > 100 µM (inactive) | > 100 µM (inactive) | 8.43 µM (inactive) | 64.6 µM (inactive) | – | > 100 µM (inactive) | 88.1 µM (inactive) | > 100 µM (inactive) | > 100 µM (inactive) | > 100 µM (inactive)
5 | CCC/C(Cl)=N/OC(NC(=O)OCC)(C(F)(F)F)C(F)(F)F | 17.6 µM (inactive) | 15.4 µM (inactive) | > 100 µM (inactive) | 19 µM (inactive) | 33.9 µM (inactive) | > 100 µM (inactive) | 16.6 µM (inactive) | > 100 µM (inactive) | 19.8 µM (inactive) | 19.8 µM (inactive) | > 100 µM (inactive) | 19.9 µM (inactive) | 18.6 µM (inactive) | 23.1 µM (inactive) | 25.1 µM (inactive) | > 100 µM (inactive) | 20.6 µM (inactive) | > 100 µM (inactive) | 19 µM (inactive)
6 | CCC1(O)C(=O)OCc2c1cc1n(c2=O)Cc2c-1nc1ccccc1c2OC (centres undefined) | – | 0.15 µM (active) | < 0.01 µM (active) | 3.52 µM (inactive) | 0.0194 µM (active) | < 0.01 µM (active) | 0.174 µM (active) | < 0.01 µM (active) | 0.378 µM (active) | < 0.01 µM (active) | < 0.01 µM (active) | < 0.01 µM (active) | – | < 0.0212 µM (active) | < 0.0121 µM (active) | 0.167 µM (active) | 0.0575 µM (active) | – | < 0.0136 µM (active)
7 | COc1ccccc1NC(=S)N/N=C(/C)c1ccccn1 | < 0.01 µM (active) | 0.0789 µM (active) | 0.0771 µM (active) | 0.0644 µM (active) | 0.0112 µM (active) | < 0.0127 µM (active) | < 0.01 µM (active) | < 0.0132 µM (active) | < 0.0119 µM (active) | < 0.01 µM (active) | 6.19 µM (inactive) | < 0.0124 µM (active) | 0.968 µM (active) | < 0.01 µM (active) | < 0.0185 µM (active) | 0.117 µM (active) | < 0.01 µM (active) | 1.28 µM (inactive) | 0.658 µM (active)
8 | CCOC(=O)/C(C)=C(/O)C(=O)OCC | – | > 100 µM (inactive) | > 100 µM (inactive) | > 100 µM (inactive) | > 100 µM (inactive) | > 100 µM (inactive) | > 100 µM (inactive) | > 100 µM (inactive) | > 100 µM (inactive) | > 100 µM (inactive) | > 100 µM (inactive) | > 100 µM (inactive) | – | > 100 µM (inactive) | > 100 µM (inactive) | > 100 µM (inactive) | > 100 µM (inactive) | – | > 100 µM (inactive)
9 | COC(=O)C1=C(C[S+]([O-])c2ccc([N+](=O)[O-])cc2[N+](=O)[O-])C2C=CC1C2 (centres undefined) | – | 21.4 µM (inactive) | 65 µM (inactive) | 23.4 µM (inactive) | 30.5 µM (inactive) | > 100 µM (inactive) | 64.9 µM (inactive) | 35.9 µM (inactive) | 19.2 µM (inactive) | 14.4 µM (inactive) | > 100 µM (inactive) | 41 µM (inactive) | – | 77.1 µM (inactive) | 26.4 µM (inactive) | 40.3 µM (inactive) | 30.2 µM (inactive) | – | 26.2 µM (inactive)
10 | Nc1ccc(Nc2cc(O)nc(O)n2)cc1 | > 100 µM (inactive) | > 100 µM (inactive) | > 100 µM (inactive) | > 100 µM (inactive) | > 100 µM (inactive) | > 100 µM (inactive) | > 100 µM (inactive) | > 100 µM (inactive) | – | > 100 µM (inactive) | > 100 µM (inactive) | > 100 µM (inactive) | > 100 µM (inactive) | > 100 µM (inactive) | > 100 µM (inactive) | > 100 µM (inactive) | > 100 µM (inactive) | > 100 µM (inactive) | –
11 | COC1O[C@@H]2COC(C)(C)O[C@@H]2C(=O)N1Nc1ccc([N+](=O)[O-])cc1 (some centres undefined) | – | > 100 µM (inactive) | > 100 µM (inactive) | > 100 µM (inactive) | > 100 µM (inactive) | > 100 µM (inactive) | > 100 µM (inactive) | > 100 µM (inactive) | > 100 µM (inactive) | 25.1 µM (inactive) | > 100 µM (inactive) | > 100 µM (inactive) | – | 21 µM (inactive) | > 100 µM (inactive) | > 100 µM (inactive) | > 100 µM (inactive) | – | > 100 µM (inactive)
12 | COP(=O)(OC)C(NC(=O)C(F)(F)F)(c1ccccc1)C(F)(F)F (centres undefined) | – | > 100 µM (inactive) | > 100 µM (inactive) | > 100 µM (inactive) | > 100 µM (inactive) | > 100 µM (inactive) | > 100 µM (inactive) | > 100 µM (inactive) | > 100 µM (inactive) | > 100 µM (inactive) | > 100 µM (inactive) | > 100 µM (inactive) | – | > 100 µM (inactive) | > 100 µM (inactive) | > 100 µM (inactive) | > 100 µM (inactive) | – | > 100 µM (inactive)
13 | C=CCNC(=O)NCCCCC(NC(C)=O)C(=O)NCc1ccccc1 (centres undefined) | – | > 100 µM (inactive) | > 100 µM (inactive) | > 100 µM (inactive) | > 100 µM (inactive) | > 100 µM (inactive) | > 100 µM (inactive) | > 100 µM (inactive) | > 100 µM (inactive) | > 100 µM (inactive) | > 100 µM (inactive) | > 100 µM (inactive) | – | > 100 µM (inactive) | > 100 µM (inactive) | > 100 µM (inactive) | > 100 µM (inactive) | – | > 100 µM (inactive)
14 | COc1ccc2c(c1)Oc1cc(O)ccc1[C@@H]2c1ccccc1C(=O)NC(C)c1ccccc1 (some centres undefined) | – | 15 µM (inactive) | 13 µM (inactive) | 23.7 µM (inactive) | 17.6 µM (inactive) | 15.3 µM (inactive) | 18.2 µM (inactive) | 12.2 µM (inactive) | 16.4 µM (inactive) | 19 µM (inactive) | 15.6 µM (inactive) | 19.1 µM (inactive) | – | 6.49 µM (inactive) | 16.1 µM (inactive) | 13.4 µM (inactive) | 14.8 µM (inactive) | – | 13.1 µM (inactive)
15 | COC(=O)N/N=C(\C(=O)Nc1cccc([N+](=O)[O-])c1)c1nc2ccc([N+](=O)[O-])cc2nc1O | – | > 100 µM (inactive) | > 100 µM (inactive) | > 100 µM (inactive) | 83.2 µM (inactive) | 26.4 µM (inactive) | 64.6 µM (inactive) | 57.5 µM (inactive) | 37.1 µM (inactive) | 45.1 µM (inactive) | > 100 µM (inactive) | 0.38 µM (active) | – | 32.7 µM (inactive) | > 100 µM (inactive) | 29.4 µM (inactive) | > 100 µM (inactive) | – | > 100 µM (inactive)
16 | COc1ccc(C(O)/C(=C/n2ccnc2)c2ccccc2)cc1OC (centres undefined) | – | > 100 µM (inactive) | > 100 µM (inactive) | > 100 µM (inactive) | > 100 µM (inactive) | > 100 µM (inactive) | > 100 µM (inactive) | > 100 µM (inactive) | > 100 µM (inactive) | > 100 µM (inactive) | > 100 µM (inactive) | > 100 µM (inactive) | – | > 100 µM (inactive) | > 100 µM (inactive) | > 100 µM (inactive) | > 100 µM (inactive) | – | > 100 µM (inactive)
